# In patent US20100015128A1, “GRP78 as a Predictor of Responsiveness to Therapeutic Agents” (UNIVERSITY OF SOUTHERN CALIFORNIA, priority 2006, published 2010):
# Legend:
# BIK = BIK protein induction under stress conditions (Western blot); format: cell-based, human; details: human cells
# From the text: Cell lines and culture conditions. The estrogen-dependent cell line MCF-7/BUS was provided by A. M. Soto (Tufts University, Medford, Mass.) and has been described (Soto et al., Environ. Health Perspect. 103:113-22 (1995)). The human embryonic kidney 293T cells and MCF-7/BUS cells were maintained in DMEM supplemented with 10% fetal bovine serum. Estrogen starvation of MCF-7/BUS cells was done as described (Hur et al., PNAS 101:2351-6 (2004)). Briefly, the cells were washed thrice with phenol red-free DMEM and incubated in washing medium at 37° C. for 60 minutes. The MCF-7/BUS cells were then cultured in phenol red-free DMEM supplemented with 5% charcoal/dextran-stripped fetal bovine serum for 24 to 72 hours as indicated. For etoposide treatment, the cells were incubated with 50 μmol/L etoposide for 6 hours and cultured for another 24 hours before harvest.
# Western blots and quantitation. The Western blots were done as described (Lee, Methods 35:373-81 (2005)). The primary antibodies were goat anti-BIK (N-19, Santa Cruz Biotechnology, Santa Cruz, Calif.), rat anti-Grp78 (76-E6, Santa Cruz Biotechnology), rat anti-GRP94, rabbit anti-calnexin, rabbit anti-calreticulin (Stressgen, Ann Arbor, Mich.), mouse anti-Flag M2, mouse anti-poly(ADP-ribose) polymerase (PARP; F-2, Santa Cruz Biotechnology, Santa Cruz, Calif.), and mouse anti-h-actin (Sigma-Aldrich, St. Louis, Mo.). Anti-h-actin was diluted at 1:2,000; anti-BIK at 1:500; and other antibodies at 1:1,000. Respective horseradish peroxidase-conjugated secondary antibodies (Santa Cruz Biotechnology, Santa Cruz, Calif.) at 1:1,000 dilution were used. The Western blots were quantitated by Fluor-S® MultiImager (Bio-Rad, Hercules, Calif.) according to the manufacturer's instructions. All quantitations were normalized against h-actin.
# GRP78 = assay: Western blot of GRP78 in SK-N-SH cells with H129 antibody; format: cell-based, human; details: 0.5 μM thapsigargin 16 hours
# Method: FIGS. 11A, 11B and 11C show specific detection of GRP78 by H129 antibody. FIG. 11A is a Western blot assay. The human neuroblastoma SK-N-SH cells were either grown under normal conditions (−) or treated with 0.5 μM thapsigargin for 16 hours. Fifty μg of total cell lysate prepared from these cells were subjected to Western blot analysis, using the […] (1:1000 dilution). […] In FIG. 11B, Chinese hamster ovary (CHO) cells expressing basal level of GRP78 and its derivative C.1 cells overexpressing GRP78 were embedded in paraffin after fixation in formalin. The sections prepared from these blocks were stained with the immunohistochemical technique using the H129 antibody (1:100 dilution). GRP78 level, as depicted by brown staining, was elevated in C.1 cells as compared to CHO cells (600×). In FIG. 11C, paraffin slides from breast cancer patients were stained with the H129 antibody with the immunohistochemical technique. Examples of plasma cell staining from two different patients are shown.
structure (smiles),measurement,setting,value
C/C=C(/C)C(=O)O[C@H]1C(C)=C2[C@H]([C@@H]1OC(=O)CCCCCCC)[C@@](C)(OC(C)=O)C[C@H](OC(=O)CCC)[C@@]1(O)[C@H]2OC(=O)[C@@]1(C)O [thapsigargin],induction of BIK by ER stress inducers,BIK,do not induce
same,GRP78 protein band,GRP78,highly inducible
